Columns and labels:
Assay in all cases: MIC determination by broth microdilution (MHB-CA, CLSI)
Type in all cases: cell-based
A. baumannii = system: A. baumannii
Description: (§1) Determination of MIC values were performed by broth microdilution in Cation-Adjusted Mueller-Hinton broth (MHB-CA) according to the CLSI guidelines (Clinical and Laboratory Standards Institute). Polymyxin B and colistin (Sigma-Aldrich, Saint-Louis) were tested with or without Tween 80 over a range dilution from 0.12 to 128 µg/ml. The surfactant Tween 80, at a final concentration of 0.002%, prevents the binding of polymyxins to multi-array plastic panel. Actually, the use of Tween for determination of MIC of polymyxins is still debatable. MHB-CA broth and 5.10^5 CFU/ml of each tested strain were distributed in each well. Following the EUCAST breakpoints, strains were characterized as susceptible or resistant to polymyxins.

C. freundii = system: C. freundii
Description: as §1

E. aerogenes = settings: strain 36F8
Description: as §1

E. cloacae = system: E. cloacae
Description: as §1

E. coli = system: E. coli
Description: as §1

H. alvei = settings: strain ER
Description: as §1

K. oxytoca = settings: strain C24
Description: as §1

K. pneumoniae = system: K. pneumoniae
Description: as §1

P. aeruginosa = system: P. aeruginosa
Description: as §1

P. mirabilis = settings: strain Pmir
Description: as §1

P. stuartii = settings: strain Pstu
Description: as §1

S. maltophilia = system: S. maltophilia
Description: as §1

S. marcescens = settings: strain Smar
Description: as §1

colistin
MIC (A. baumannii; strain 38B9, With Tween80): 0.25 µg/mL
MIC (A. baumannii; strain 38B9, Without Tween80): 0.5 µg/mL
MIC (A. baumannii; strain Aba6, With Tween80): 128 µg/mL
MIC (A. baumannii; strain Aba6, Without Tween80): 128 µg/mL
MIC (A. baumannii; strain C105, With Tween80): 0.12 µg/mL
MIC (A. baumannii; strain C105, Without Tween80): 0.5 µg/mL
MIC (C. freundii; strain 38B2, With Tween80): 0.12 µg/mL
MIC (C. freundii; strain 38B2, Without Tween80): 0.12 µg/mL
MIC (C. freundii; strain C136, With Tween80): 0.12 µg/mL
MIC (C. freundii; strain C136, Without Tween80): 0.25 µg/mL
MIC (E. aerogenes; With Tween80): 0.12 µg/mL
MIC (E. aerogenes; Without Tween80): 0.12 µg/mL
MIC (E. cloacae; strain 38A10, With Tween80): 0.12 µg/mL
MIC (E. cloacae; strain 38A10, Without Tween80): 0.12 µg/mL
MIC (E. cloacae; strain C28, With Tween80): 32 µg/mL
MIC (E. cloacae; strain C28, Without Tween80): 32 µg/mL
MIC (E. cloacae; strain C129, With Tween80): 0.12 µg/mL
MIC (E. cloacae; strain C129, Without Tween80): 0.12 µg/mL
MIC (E. cloacae; strain C144, With Tween80): 0.12 µg/mL
MIC (E. cloacae; strain C144, Without Tween80): 0.12 µg/mL
MIC (E. cloacae; strain HM, With Tween80): >128 µg/mL
MIC (E. cloacae; strain HM, Without Tween80): >128 µg/mL
MIC (E. coli; strain 36A6, With Tween80): 0.12 µg/mL
MIC (E. coli; strain 36A6, Without Tween80): 0.12 µg/mL
MIC (E. coli; strain 36D7, With Tween80): 0.12 µg/mL
MIC (E. coli; strain 36D7, Without Tween80): 0.25 µg/mL
MIC (E. coli; strain 38D6, With Tween80): 0.12 µg/mL
MIC (E. coli; strain 38D6, Without Tween80): 0.25 µg/mL
MIC (E. coli; strain 27563, With Tween80): 8 µg/mL
MIC (E. coli; strain 27563, Without Tween80): 16 µg/mL
MIC (E. coli; strain 27837, With Tween80): 8 µg/mL
MIC (E. coli; strain 27837, Without Tween80): 16 µg/mL
MIC (E. coli; strain 27850, With Tween80): 8 µg/mL
MIC (E. coli; strain 27850, Without Tween80): 16 µg/mL
MIC (E. coli; strain 27852, With Tween80): 8 µg/mL
MIC (E. coli; strain 27852, Without Tween80): 8 µg/mL
MIC (E. coli; strain 28509, With Tween80): 4 µg/mL
MIC (E. coli; strain 28509, Without Tween80): 4 µg/mL
MIC (E. coli; strain 30742, With Tween80): 4 µg/mL
MIC (E. coli; strain 30742, Without Tween80): 8 µg/mL
MIC (E. coli; strain ATCC 25922, With Tween80): 0.12 µg/mL
MIC (E. coli; strain ATCC 25922, Without Tween80): 0.25 µg/mL
MIC (E. coli; strain C140, With Tween80): 0.12 µg/mL
MIC (E. coli; strain C140, Without Tween80): 0.12 µg/mL
MIC (E. coli; strain Eco OmpC-OmpF-, With Tween80): 0.12 µg/mL
MIC (E. coli; strain Eco OmpC-OmpF-, Without Tween80): 0.12 µg/mL
MIC (H. alvei; With Tween80): 16 µg/mL
MIC (H. alvei; Without Tween80): 16 µg/mL
MIC (K. oxytoca; With Tween80): 64 µg/mL
MIC (K. oxytoca; Without Tween80): 64 µg/mL
MIC (K. pneumoniae; strain 12E2, With Tween80): 64 µg/mL
MIC (K. pneumoniae; strain 12E2, Without Tween80): 64 µg/mL
MIC (K. pneumoniae; strain 13G2, With Tween80): 32 µg/mL
MIC (K. pneumoniae; strain 13G2, Without Tween80): 64 µg/mL
MIC (K. pneumoniae; strain 18J1, With Tween80): 32 µg/mL
MIC (K. pneumoniae; strain 18J1, Without Tween80): 32 µg/mL
MIC (K. pneumoniae; strain 36A4, With Tween80): 0.12 µg/mL
MIC (K. pneumoniae; strain 36A4, Without Tween80): 0.12 µg/mL
MIC (K. pneumoniae; strain 36A5, With Tween80): 0.12 µg/mL
MIC (K. pneumoniae; strain 36A5, Without Tween80): 0.12 µg/mL
MIC (K. pneumoniae; strain 36A7, With Tween80): 0.12 µg/mL
MIC (K. pneumoniae; strain 36A7, Without Tween80): 0.25 µg/mL
MIC (K. pneumoniae; strain 38B7, With Tween80): 0.12 µg/mL
MIC (K. pneumoniae; strain 38B7, Without Tween80): 0.5 µg/mL
MIC (K. pneumoniae; strain 75b, With Tween80): 128 µg/mL
MIC (K. pneumoniae; strain 75b, Without Tween80): 128 µg/mL
MIC (K. pneumoniae; strain 1118, With Tween80): 64 µg/mL
MIC (K. pneumoniae; strain 1118, Without Tween80): 64 µg/mL
MIC (K. pneumoniae; strain 1515, With Tween80): 32 µg/mL
MIC (K. pneumoniae; strain 1515, Without Tween80): 64 µg/mL
MIC (K. pneumoniae; strain AF1b, With Tween80): 16 µg/mL
MIC (K. pneumoniae; strain AF1b, Without Tween80): 16 µg/mL
MIC (K. pneumoniae; strain BICb, With Tween80): >128 µg/mL
MIC (K. pneumoniae; strain BICb, Without Tween80): >128 µg/mL
MIC (K. pneumoniae; strain C1, With Tween80): 128 µg/mL
MIC (K. pneumoniae; strain C1, Without Tween80): 128 µg/mL
MIC (K. pneumoniae; strain C3, With Tween80): 32 µg/mL
MIC (K. pneumoniae; strain C3, Without Tween80): 32 µg/mL
MIC (K. pneumoniae; strain C7, With Tween80): >128 µg/mL
MIC (K. pneumoniae; strain C7, Without Tween80): >128 µg/mL
MIC (K. pneumoniae; strain C11, With Tween80): 128 µg/mL
MIC (K. pneumoniae; strain C11, Without Tween80): 64 µg/mL
MIC (K. pneumoniae; strain C12, With Tween80): 64 µg/mL
MIC (K. pneumoniae; strain C12, Without Tween80): 64 µg/mL
MIC (K. pneumoniae; strain C16, With Tween80): 64 µg/mL
MIC (K. pneumoniae; strain C16, Without Tween80): 64 µg/mL
MIC (K. pneumoniae; strain C21, With Tween80): 128 µg/mL
MIC (K. pneumoniae; strain C21, Without Tween80): 128 µg/mL
MIC (K. pneumoniae; strain C22, With Tween80): 64 µg/mL
MIC (K. pneumoniae; strain C22, Without Tween80): 32 µg/mL
MIC (K. pneumoniae; strain C25, With Tween80): 32 µg/mL
MIC (K. pneumoniae; strain C25, Without Tween80): 64 µg/mL
MIC (K. pneumoniae; strain C26, With Tween80): 128 µg/mL
MIC (K. pneumoniae; strain C26, Without Tween80): 128 µg/mL
MIC (K. pneumoniae; strain C27, With Tween80): >128 µg/mL
MIC (K. pneumoniae; strain C27, Without Tween80): >128 µg/mL
MIC (K. pneumoniae; strain C112, With Tween80): 0.12 µg/mL
MIC (K. pneumoniae; strain C112, Without Tween80): 0.5 µg/mL
MIC (K. pneumoniae; strain C115, With Tween80): 0.12 µg/mL
MIC (K. pneumoniae; strain C115, Without Tween80): 0.12 µg/mL
MIC (K. pneumoniae; strain C130, With Tween80): 0.12 µg/mL
MIC (K. pneumoniae; strain C130, Without Tween80): 0.5 µg/mL
MIC (K. pneumoniae; strain C132, With Tween80): 0.12 µg/mL
MIC (K. pneumoniae; strain C132, Without Tween80): 0.12 µg/mL
MIC (K. pneumoniae; strain Kp OmpK3 5-OmpK3 6-, With Tween80): 0.12 µg/mL
MIC (K. pneumoniae; strain Kp OmpK3 5-OmpK3 6-, Without Tween80): 0.12 µg/mL
MIC (K. pneumoniae; strain Sa, With Tween80): >128 µg/mL
MIC (K. pneumoniae; strain Sa, Without Tween80): 128 µg/mL
MIC (K. pneumoniae; strain T1b, With Tween80): 128 µg/mL
MIC (K. pneumoniae; strain T1b, Without Tween80): 128 µg/mL
MIC (K. pneumoniae; strain T4, With Tween80): 64 µg/mL
MIC (K. pneumoniae; strain T4, Without Tween80): 64 µg/mL
MIC (K. pneumoniae; strain T5, With Tween80): 64 µg/mL
MIC (K. pneumoniae; strain T5, Without Tween80): 32 µg/mL
MIC (P. aeruginosa; strain 38J8, With Tween80): 0.5 µg/mL
MIC (P. aeruginosa; strain 38J8, Without Tween80): 2 µg/mL
MIC (P. aeruginosa; strain ATCC 27853, With Tween80): 0.12 µg/mL
MIC (P. aeruginosa; strain ATCC 27853, Without Tween80): 0.5 µg/mL
MIC (P. aeruginosa; strain C111, With Tween80): 0.12 µg/mL
MIC (P. aeruginosa; strain C111, Without Tween80): 1 µg/mL
MIC (P. aeruginosa; strain C131, With Tween80): 0.25 µg/mL
MIC (P. aeruginosa; strain C131, Without Tween80): 1 µg/mL
MIC (P. aeruginosa; strain C133, With Tween80): 0.5 µg/mL
MIC (P. aeruginosa; strain C133, Without Tween80): 2 µg/mL
MIC (P. mirabilis; With Tween80): >128 µg/mL
MIC (P. mirabilis; Without Tween80): >128 µg/mL
MIC (P. stuartii; With Tween80): >128 µg/mL
MIC (P. stuartii; Without Tween80): >128 µg/mL
MIC (S. maltophilia; strain Sm2, With Tween80): >128 µg/mL
MIC (S. maltophilia; strain Sm2, Without Tween80): >128 µg/mL
MIC (S. maltophilia; strain SmA51, With Tween80): 16 µg/mL
MIC (S. maltophilia; strain SmA51, Without Tween80): 32 µg/mL
MIC (S. marcescens; With Tween80): >128 µg/mL
MIC (S. marcescens; Without Tween80): >128 µg/mL
